Source: ChEMBL document CHEMBL5625275, “Design, synthesis and biological evaluation of tanshinone IIA derivatives as NLRP3 inflammasome inhibitors” (Bioorg Med Chem Lett, 2024)
Active and inactive are the calls of the source. No cut-off for these calls is given here.

How the values were obtained:
[1] = target: NACHT, LRR and PYD domains-containing protein 3 (Mus musculus, UniProt Q8R4B8); test: Inhibition of NLRP3 inflammasome in mouse J774.A1 cells assessed as inhibition of IL-1 beta secretion; assay type: cell-based
NACHT, LRR and PYD domains-containing protein 3, sequence (Q8R4B8 whole entry, the tested form may be a part): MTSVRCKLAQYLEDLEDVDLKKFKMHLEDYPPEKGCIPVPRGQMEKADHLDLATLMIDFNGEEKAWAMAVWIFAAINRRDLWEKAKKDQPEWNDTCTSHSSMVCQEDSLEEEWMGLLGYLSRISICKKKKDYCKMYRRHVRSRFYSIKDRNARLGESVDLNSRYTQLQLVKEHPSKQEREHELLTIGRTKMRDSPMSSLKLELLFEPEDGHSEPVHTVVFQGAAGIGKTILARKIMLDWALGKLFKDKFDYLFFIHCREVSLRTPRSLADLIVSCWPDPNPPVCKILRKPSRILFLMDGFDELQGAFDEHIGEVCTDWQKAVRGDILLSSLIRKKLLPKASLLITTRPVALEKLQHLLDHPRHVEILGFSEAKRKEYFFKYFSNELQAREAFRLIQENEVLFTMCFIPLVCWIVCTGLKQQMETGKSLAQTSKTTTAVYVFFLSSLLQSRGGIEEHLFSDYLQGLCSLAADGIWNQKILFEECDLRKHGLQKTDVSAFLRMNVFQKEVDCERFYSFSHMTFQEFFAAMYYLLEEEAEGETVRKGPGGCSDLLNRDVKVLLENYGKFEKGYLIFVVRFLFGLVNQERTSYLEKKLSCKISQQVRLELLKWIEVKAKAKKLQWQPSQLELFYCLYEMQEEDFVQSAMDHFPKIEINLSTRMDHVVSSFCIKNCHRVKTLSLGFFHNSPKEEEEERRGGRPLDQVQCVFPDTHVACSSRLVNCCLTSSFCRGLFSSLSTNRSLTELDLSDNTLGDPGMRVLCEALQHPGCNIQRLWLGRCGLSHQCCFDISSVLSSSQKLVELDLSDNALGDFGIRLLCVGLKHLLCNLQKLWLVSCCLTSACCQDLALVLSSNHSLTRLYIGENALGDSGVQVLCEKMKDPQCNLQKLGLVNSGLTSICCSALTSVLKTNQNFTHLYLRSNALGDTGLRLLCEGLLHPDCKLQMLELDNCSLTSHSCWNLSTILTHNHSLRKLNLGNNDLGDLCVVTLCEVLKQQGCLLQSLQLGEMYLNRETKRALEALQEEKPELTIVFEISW

[2] = Cytotoxicity against mouse J774.A1 cells assessed as cell viability; assay type: toxicity, cell-based; settings: read-out: TC50 (the source's name)
[3] = target: NACHT, LRR and PYD domains-containing protein 3 (Mus musculus) (UniProt Q8R4B8); test: Inhibition of NLRP3 inflammasome activation in LPS primed mouse J774.A1 cells assessed as decrease in IL-1 beta production preincubated with compound for 1 hr followed by nigericin stimulation and measured after 1 hr by ELISA method; assay type: cell-based; settings: dose 1-5 µM, time 2.0 hrs
NACHT, LRR and PYD domains-containing protein 3 (Mus musculus), sequence (Q8R4B8 whole entry, the tested form may be a part): as above

NLRP3 inflammasome = test: Selectivity index, ratio of TC50 for mouse J774.A1 cells to IC50 for NLRP3 inflammasome in mouse J774.A1 cells; assay type: toxicity, cell-based; settings: read-out: Selectivity Index
[4] = target: NACHT, LRR and PYD domains-containing protein 3 (Mus musculus) (UniProt Q8R4B8); test: Inhibition of NLRP3 inflammasome activation in LPS primed mouse BMDM cells assessed as decrease in IL-1 beta production preincubated with compound for 1 hr followed by nigericin stimulation and measured after 1 hr by ELISA method; assay type: cell-based; settings: dose 1-5 µM, time 2.0 hrs
[5] = target: NACHT, LRR and PYD domains-containing protein 3 (Mus musculus) (UniProt Q8R4B8); test: Inhibition of NLRP3 inflammasome activation in LPS primed mouse J774.A1 cells assessed as reduction in lactate dehydrogenase at 1 to 5 uM preincubated with compound for 1 hr followed by nigericin stimulation and measured after 1 hr by ELISA method; assay type: cell-based; settings: dose 1-5 µM, time 2.0 hrs
[6] = target: NACHT, LRR and PYD domains-containing protein 3 (Mus musculus) (UniProt Q8R4B8); test: Inhibition of NLRP3 inflammasome activation in LPS primed mouse J774.A1 cells assessed as reduction in cleaved gasdermin-D at 1 to 5 uM preincubated with compound for 1 hr followed by nigericin stimulation and measured after 1 hr by ELISA method; assay type: cell-based; settings: dose 1-5 µM, time 2.0 hrs
[7] = target: NACHT, LRR and PYD domains-containing protein 3 (Mus musculus) (UniProt Q8R4B8); test: Inhibition of NLRP3 inflammasome in LPS primed mouse J774.A1 cells assessed as inhibition of IL-1 beta secretion in cell supernatant at 1 to 5 uM preincubated with compound for 1 hr followed by nigericin stimulation and measured after 1 hr by Western blot analysis; assay type: cell-based; settings: dose 1-5 µM, time 2.0 hrs
[8] = target: NACHT, LRR and PYD domains-containing protein 3 (Mus musculus) (UniProt Q8R4B8); test: Inhibition of NLRP3 inflammasome in LPS primed mouse J774.A1 cells assessed as inhibition of caspase-1 maturation at 1 to 5 uM preincubated with compound for 1 hr followed by nigericin stimulation and measured after 1 hr by Western blot analysis; assay type: cell-based; settings: dose 1-5 µM, time 2.0 hrs
Mus musculus [9] = test: Anti-inflammatory activity against LPS-induced peritonitis C57BL/6 mouse model assessed as inhibition of IL-1 beta level in serum at 25 to 100 mg/kg, IG by ELISA analysis; assay type: functional, organism-based; settings: dose 25-100 mg/kg
Mus musculus [10] = test: Anti-inflammatory activity against LPS-induced peritonitis C57BL/6 mouse model assessed as inhibition of IL-1 beta level in peritoneal fluid at 25 to 100 mg/kg, IG by ELISA analysis; assay type: functional, organism-based; settings: dose 25-100 mg/kg
J774.A1 [11] = test: Inhibition of intracellular ROS generation in LPS primed mouse J774.A1 cells assessed as decrease in ROS positive cells at 1 uM pretreated for 1 hr followed by nigericin treatment for 1 hr by DCFH-DA staining based fluorescence microscopy (reference value: 52%); assay type: functional; set-up: scale not given: the % may be the effect or the level left; settings: time 2 hrs
J774.A1 [12] = test: Inhibition of intracellular ROS generation in LPS primed mouse J774.A1 cells assessed as decrease in ROS positive cells at 5 uM pretreated for 1 hr followed by nigericin treatment for 1 hr by DCFH-DA staining based fluorescence microscopy (reference value: 52%); assay type: functional; set-up: scale not given: the % may be the effect or the level left; settings: time 2 hrs
J774.A1 [13] = test: Inhibition of intracellular ROS generation in LPS primed mouse J774.A1 cells pretreated for 1 hr followed by nigericin treatment for 1 hr by DCFH-DA staining based fluorescence microscopy; assay type: functional, cell-based; settings: dose 1-5 µM, time 2.0 hrs
J774.A1 [14] = test: Inhibition of mitochondrial ROS production in LPS/nigericin stimulated mouse J774.A1 cells at 1 to 5 uM pretreated for 1 hr with compound and LPS followed by nigericin treatment for 1 hr by MitoSOX staining based immunofluorescence analysis; assay type: functional, cell-based; settings: dose 1-5 µM, time 2.0 hrs

Cc1coc2c1C(=O)C(=O)c1c-2ccc2c1CCCC2(C)C [TANSHINONE IIA]
IC50 [1]: 5.15 µM
CC50 [2]: > 100 µM

COc1cc(/C=C/C(=O)OC2CCC(C)(C)c3ccc4c(c32)C(=O)C(=O)c2c(C)coc2-4)cc(OC)c1OC (centres undefined)
IC50 [1]: 9.11 µM
CC50 [2]: 60.2 µM

Cc1coc2c1C(=O)C(=O)c1c-2ccc2c1C(OC(=O)c1ccccc1O)CCC2(C)C (centres undefined)
inhibition [3]: Dose-Dependent Effect
IC50 [1]: 0.48 µM
CC50 [2]: 30.8 µM
selectivity ratio (NLRP3 inflammasome): 62.1
inhibition [4]: Dose-Dependent Effect
inhibition [5]: Active
inhibition [6]: Active
inhibition [7]: Active
inhibition [8]: Active
Activity (Mus musculus [9]): Active
Activity (Mus musculus [10]): Active
Activity (J774.A1 [11]): 60%
Activity (J774.A1 [12]): 56%
inhibition (J774.A1 [13]): Dose-Dependent Effect
inhibition (J774.A1 [14]): Active

CC(=O)OC1CCC(C)(C)c2ccc3c(c21)C(=O)C(=O)c1c(C)coc1-3 (centres undefined)
IC50 [1]: 1.25 µM
CC50 [2]: 36.5 µM

Cc1coc2c3ccc4c(c3c3ocnc3c12)CCCC4(C)C
IC50 [1]: > 40 µM
CC50 [2]: > 100 µM

Cc1c(Br)oc2c1C(=O)C(=O)c1c-2ccc2c1CCCC2(C)C
IC50 [1]: 5.21 µM
CC50 [2]: > 100 µM

Cc1c(S(=O)(=O)O)oc2c1C(=O)C(=O)c1c-2ccc2c1CCCC2(C)C [TANSHINONE IIA SULFONIC ACID]
IC50 [1]: 4.3 µM
CC50 [2]: > 100 µM

Cc1c(-c2ccccc2)oc2c1C(=O)C(=O)c1c-2ccc2c1CCCC2(C)C
IC50 [1]: > 40 µM
CC50 [2]: > 100 µM

Cc1coc2c1C(=O)C(=O)c1c-2ccc2c1C(OC(=O)c1cccc(O)c1)CCC2(C)C (centres undefined)
IC50 [1]: 5.53 µM
CC50 [2]: 18.2 µM

Cc1coc2c1C(=O)C(=O)c1c-2ccc2c1C(OC(=O)c1ccc(O)cc1)CCC2(C)C (centres undefined)
IC50 [1]: 2.57 µM
CC50 [2]: 14.5 µM

Cc1coc2c1C(=O)C(=O)c1c-2ccc2c1C=CCC2(C)C
IC50 [1]: 0.61 µM
CC50 [2]: 61.8 µM

Cc1coc2c1C(=O)C(=O)c1c-2ccc2c1C(OC(=O)c1cc(Cl)ccc1Cl)CCC2(C)C (centres undefined)
IC50 [1]: 3.6 µM
CC50 [2]: 19.7 µM

Cc1coc2c1C(=O)C(=O)c1c-2ccc2c1C(OC(=O)CCCCC1CCSS1)CCC2(C)C (centres undefined)
IC50 [1]: 1.27 µM
CC50 [2]: 26.8 µM
